Patent EP1147083B1, “ARYLPIPERAZINYL-CYCLOHEXYL INDOLE DERIVATIVES FOR THE TREATMENT OF DEPRESSION” (Wyeth, priority 1999, dated 2000)
Read-outs that look alike come from different tables or passages of the source.

What was measured:
[1] = molecular target: T1, human 5-HT1A receptor subtype (Homo sapiens, UniProt P08908); experiment: 5-HT1A receptor binding assay with [3H]8-OH-DPAT on CHO cell membranes; conditions: [3H]8-OH-DPAT 1.5 nM
T1 construct: expressed in transfected cells
T1 sequence (P08908 1-422): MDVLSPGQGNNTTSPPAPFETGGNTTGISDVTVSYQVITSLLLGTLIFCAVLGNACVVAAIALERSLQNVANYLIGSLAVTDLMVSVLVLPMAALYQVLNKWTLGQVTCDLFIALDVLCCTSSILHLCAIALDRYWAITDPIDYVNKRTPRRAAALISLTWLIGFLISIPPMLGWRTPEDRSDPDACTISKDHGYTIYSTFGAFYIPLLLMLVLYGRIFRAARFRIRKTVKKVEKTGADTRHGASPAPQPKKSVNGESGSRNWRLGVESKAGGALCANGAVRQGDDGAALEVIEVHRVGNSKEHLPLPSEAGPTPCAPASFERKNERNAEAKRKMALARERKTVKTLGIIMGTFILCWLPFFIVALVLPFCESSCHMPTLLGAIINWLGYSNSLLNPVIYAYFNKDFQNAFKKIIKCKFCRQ
Description: (§1) The PCR cloning of the human 5-HT1A receptor subtype from a human genomic library has been described previously Chanda et al., Mol. Pharmacol., 43:516 (1993). A stable Chinese hamster ovary cell line expressing the human 5-HT1A receptor subtype (5-HT1A.CHO cells) was employed throughout this study. Cells were maintained in DMEM supplemented with 10% foetal calf serum, non-essential amino acids and penicillin/ streptomycin.
Cells were grown to 95-100% confluency as a monolayer before membranes were harvested for binding studies. Cells were gently scraped from the culture plates, transferred to centrifuge tubes, and washed twice by centrifugation (2000 rpm for 10 min., 4°C) in buffer (50 mM Tris; pH 7.5). The resulting pellets were aliquoted and placed at -80°C. On the day of assay, the cells were thawed on ice, and resuspended in buffer. Studies were conducted using [^3H]8-OH-DPAT as the radioligand. The binding assay was performed in 96 well microtiter plates in a final total volume of 250 µL of buffer. Competition experiments were performed by using 7 concentrations of unlabelled drug and a final ligand concentration of 1.5 nM. Nonspecific binding was determined in the presence of 10 µM 5HT. Saturation analysis was conducted by using [^3H]8-OH-DPAT at concentrations ranging from 0.3-30 nM. Following a 30 minute incubation at room temperature, the reaction was terminated by the addition of ice cold buffer and rapid filtration using a M-96 Brandel Cell Harvester (Gaithersburg, MD) through a GF/B filter presoaked for 30 minutes in 0.5% polyethyleneimine.

[2] = molecular target: T2, 5-HT1A cloned receptor membrane fragments (Homo sapiens, UniProt P08908); experiment: [35S]-GTPγS binding assay; format: biochemical; conditions: read-out: GTPγS (%EMax)
T2 construct: expressed in transfected cells
T2 sequence (P08908 1-422): T1 sequence (P08908 1-422)
Description: The [^35S]-GTPγS binding assay was similar to that used by Lazareno and Birdsall, Br. J. Pharmacol. 109:1120 (1993). Briefly, 5-HT1A cloned receptor membrane fragments (as used for 5-HT1A receptor binding assays) were stored at -70°C until needed. When needed, membranes were rapidly thawed, centrifuged at 40,000 x g for 10 minutes and resuspended at 4 °C for 10 minutes in assay buffer (25 mM HEPES, 3 mM MgCl2, 100 mM NaCl, 1 mM EDTA, 10 uM GDP, […], pH 8.0). These membranes were then incubated for 30 minutes at 30°C with [^35S]GTPgS (1 nM) in the presence of vehicle, test compound (one to eight concentrations), or excess 8-OH-DPAT to define maximum agonist response. All reactions are terminated by the addition of ice cold Tris buffer followed by rapid filtration using a Tom Tech® filtration device to separate bound from free [^35S]GTPgS. Agonists produce an increase in the amount of [^35S]GTPgS bound whereas antagonists produce no increase in binding. Bound radioactivity was counted and analyzed as above.

[3] = molecular target: T3, human 5-HT1A receptor subtype (5-HT1A.CHO cells) (Homo sapiens, UniProt P08908); experiment: cAMP formation in forskolin-treated cells (cAMP SPA assay); format: cell-based; conditions: value in brackets; forskolin 1 uM
T3 construct: expressed in transfected cells
T3 sequence (P08908 1-422): T1 sequence (P08908 1-422)
Description: as §1
The following assays were performed by incubating the cells with DMEM containing 25 mM HEPES, 5 mM theophylline and 10 µM pargyline for a period of 20 minutes at 37°C. Functional activity was assessed by treating the cells with forskolin (1 uM final concentration) followed immediately by test compound (6 concentrations) for an additional 10 minutes at 37°C. In separate experiments, 6 concentrations of antagonist were preincubated for 20 minutes prior to the addition of 10 nM 8-OH-DPAT and forskolin. The reaction was terminated by removal of the media and addition of 0.5 ml ice cold assay buffer. Plates were stored at -20°C prior to assessment of cAMP formation by a cAMP SPA assay (Amersham).

[4] = value in brackets, or a lone % in the cell, maximum agonist response defined by excess 8-OH-DPAT

Structure (SMILES)	Ki [1] [nM]	Emax [2, 4] [%]	Emax [3] [%]	Emax [2] [%]
c1cc(N2CCN([C@H]3CC[C@@H](c4c[nH]c5ccccc54)CC3)CC2)c2cc[nH]c2c1 [Example 1a, 3-[cis-4-[4-(1H-Indol-4-yl)-1-piperazinyl]cyclohexyl]-1H-indole]	32	0	0	
c1cc(N2CCN([C@H]3CC[C@H](c4c[nH]c5ccccc54)CC3)CC2)c2cc[nH]c2c1 [Example 1b, 3-[trans-4-[4-(1H-indol-4-yl)-1-piperazinyl]cyclohexyl]-1H-indole]	5.29	32	77	
Fc1cccc2[nH]cc([C@H]3CC[C@@H](N4CCN(c5cccc6[nH]ccc56)CC4)CC3)c12 [Example 2a, 4-Fluoro-3-[cis-4-[4-(1H-indol-4-yl)-1-piperazinyl]cyclohexyl]-1H-indole]	117			
Fc1cccc2[nH]cc([C@H]3CC[C@H](N4CCN(c5cccc6[nH]ccc56)CC4)CC3)c12 [Example 2b, 4-Fluoro-3-[trans-4-[4-(1H-indol-4-yl)-1-piperazinyl]cyclohexyl]-1H-indole]	22.3			
Fc1ccc2[nH]cc([C@H]3CC[C@@H](N4CCN(c5cccc6[nH]ccc56)CC4)CC3)c2c1 [Example 3a, 5-Fluoro-3-[cis-4-[4-(1H-indot-4-yl)-1-piperazinyl]cyclohexyl]-1H-indole]	36.7		0	10
Fc1ccc2[nH]cc([C@H]3CC[C@H](N4CCN(c5cccc6[nH]ccc56)CC4)CC3)c2c1 [Example 3b, 5-Fluoro-3-[trans-4-[4-(1H-indol-4-yl)-1-piperazinyl]cyclohexyl]-1H-indole]	4.62		0	51
Fc1ccc2c(c1)[nH]cc2[C@H]1CC[C@@H](N2CCN(c3cccc4[nH]ccc34)CC2)CC1 [Example 4a, 6-Fluoro-3-[cis-4-[4-(1H-indol-4-yl)-1-piperazinyl]cyclohexyl]-1H-indole]	33.5	0	0	
Fc1ccc2c(c1)[nH]cc2[C@H]1CC[C@H](N2CCN(c3cccc4[nH]ccc34)CC2)CC1 [Example 4b, 6-Fluoro-3-[trans-4-[4-(1H-indol-4-yl)-1-piperazinyl]cyclohexyl]-1H-indole]	5.45		7.5	
Clc1ccc2[nH]cc([C@H]3CC[C@H](N4CCN(c5cccc6[nH]ccc56)CC4)CC3)c2c1 [Example 6b, 5-Chloro-3-[trans-4-[4-(1H-indol-4-yl)-1-piperazinyl]cyclohexyl]-1H-indole]	58.3			
N#Cc1ccc2[nH]cc([C@H]3CC[C@@H](N4CCN(c5cccc6[nH]ccc56)CC4)CC3)c2c1 [Example 7a, 3-{4-[(1,4-cis)-4-(1H-indol-4-yl)-piperazinyl-1-yl]cyclohexyl} -1H-indole-5-carbonitrile]			0	
COc1ccc2[nH]cc([C@H]3CC[C@@H](N4CCN(c5cccc6[nH]ccc56)CC4)CC3)c2c1 [Example 8a, 5-Methoxy-3-[cis-4-[4-(1H-indol-4-yl)-1-piperazinyl]cyclohexyl]-1H-indole]	60.3	0	0	
COc1ccc2[nH]cc([C@H]3CC[C@H](N4CCN(c5cccc6[nH]ccc56)CC4)CC3)c2c1 [Example 8b, 5-Methoxy-3-[trans-4-[4-(1H-indol-4-yl)-1-piperazinyl]cyclohexyl]-1H-indole]	2.87	32	77	
Cc1[nH]c2ccccc2c1[C@H]1CC[C@@H](N2CCN(c3cccc4[nH]ccc34)CC2)CC1 [Example 9a, 3-[cis-4-[4-(1H-Indol-4-yl)-1-piperazinyl]cyclohexyl] -2-methyl-1H-indole]	87.1			
Cc1[nH]c2ccccc2c1[C@H]1CC[C@H](N2CCN(c3cccc4[nH]ccc34)CC2)CC1 [Example 9b, 3-[trans-4-[4-(1H-Indol-4-yl)-1-piperazinyl]cyclohexyl] -2-methyl-1H-indole]	13			
c1cc(N2CCN([C@H]3CC[C@@H](c4c[nH]c5ncccc54)CC3)CC2)c2cc[nH]c2c1 [Example 10a, 3-{(1,4-cis)-4-[4-(1H-Indole-4-yl)-piperazin-1-yl]-cyclohexyl}-1H-pyrrolo[2,3-b]pyridine]			0	
Fc1ccc2[nH]cc([C@H]3CC[C@@H](N4CCN(c5cccc6c5OCCO6)CC4)CC3)c2c1 [Example 24a, 3-{(1,4-cis)-4-[4-(2,3-Dihydro-benzo[1,4]dioxin-5-yl)-piperazin-1-yl]-cyclohexyl}-5-fluoro-1H-indole]				15.4
Fc1ccc2[nH]cc([C@H]3CC[C@H](N4CCN(c5cccc6c5OCCO6)CC4)CC3)c2c1 [Example 24b, 3-{(1,4-trans)-4-[4-(2,3-Dihydro-benzo[1,4]dioxin-5-yl)-piperazin-1-yl]-cyclohexyl}-5-fluoro-1H-indole]				73
Fc1ccc2c(c1)[nH]cc2[C@H]1CC[C@@H](N2CCN(c3cccc4c3OCCO4)CC2)CC1 [Example 25a, 3-{(1,4-cis)-4-[4-(2,3-Dihydro-benzo[1,4]dioxin-5-yl)-piperazin-1-yl]-cyclohexyl}-6-fluoro-1H-indole]				9
Fc1ccc2[nH]cc([C@H]3CC[C@@H](N4CCN(c5cccc6cccnc56)CC4)CC3)c2c1 [Example 27a, 8-{4-[(1,4-cis)-4-(5-Fluoro-1H-indol-3-yl)-cyclohexyl] -piperazin-1-yl}-quinoline]			0	20
Fc1ccc2[nH]cc([C@H]3CC[C@H](N4CCN(c5cccc6cccnc56)CC4)CC3)c2c1 [Example 27b, 8-{4-[(1,4-trans)-4-(5-Fluoro-1H-indol-3-yl)-cyclohexyl] -piperazin-1-yl}-quinoline]				66
Cn1cc([C@H]2CC[C@@H](N3CCN(c4cccc5cccnc45)CC3)CC2)c2cc(F)ccc21 [Example 28, 8-{4-(1,4-cis)-4-[4-(5-Fluoro-1-methyl-1H-indol-3-yl)-cyclohexyl] -piperazin-1-yl}-quinoline]			0	0
N#Cc1ccc2[nH]cc([C@H]3CC[C@@H](N4CCN(c5cccc6cccnc56)CC4)CC3)c2c1 [Example 29a, 3-[(1,4-cis)-4-(4-Quinolin-8-yl-piperazin-1-yl)-cyclohexyl] -1H-indole-5-carbonitrile]				23
COc1cc(N2CCN([C@H]3CC[C@@H](c4c[nH]c5ccc(C#N)cc54)CC3)CC2)c2ncccc2c1 [Example 44c, 3-{(1,4-cis)-4-[4-(6-Methoxy-quinolin-8-yl)-piperazin-1-yl]-cyclohexyl}-1H-indole-5-carbonitrile]		0	0	
